Read-outs that look alike come from different tables or passages of the source.
Key:
HIV = assay: Anti-HIV activity in the presence of human serum proteins (HSA or AAG); type: cell-based
Procedure: HIV- or mock-infected MT4 cells were incubated for five days in the presence of various concentrations of the inhibitor. At the end of the incubation period, all HIV-infected cells have been killed by the replicating virus in the control cultures in the absence of any inhibitor. Cell viability is measured by measuring the concentration of MTT, a yellow, water soluble tetrazolium dye that is converted to a purple, water insoluble formazan in the mitochondria of living cells only. Upon solubilization of the resulting formazan crystals with isopropanol, the absorbance of the solution is monitored at 540 nm. The values correlate directly to the number of living cells remaining in the culture at the completion of the five day incubation. The inhibitory activity of the compound was monitored on the virus-infected cells and was expressed as IC50 and IC90. […]
Human serum proteins like albumin (HSA) or alpha-1 acid glycoprotein (AAG) are known to bind many drugs, resulting in a possible decrease in the effectiveness of those compounds. In order to determine whether compound 13 would be adversely effected by this binding, the anti-HIV activity of the compound was measured in the presence of physiological concentrations of HSA or AAG, thus evaluating the effect of the binding of the inhibitor to those proteins.

HIV-1 strain LAI = assay: Cellular anti-HIV assay in MT4 cells (MTT); type: cell-based; conditions: for IC50: read-out: IC50
Procedure: (§1) HIV- or mock-infected MT4 cells were incubated for five days in the presence of various concentrations of the inhibitor. At the end of the incubation period, all HIV-infected cells have been killed by the replicating virus in the control cultures in the absence of any inhibitor. Cell viability is measured by measuring the concentration of MTT, a yellow, water soluble tetrazolium dye that is converted to a purple, water insoluble formazan in the mitochondria of living cells only. Upon solubilization of the resulting formazan crystals with isopropanol, the absorbance of the solution is monitored at 540 nm. The values correlate directly to the number of living cells remaining in the culture at the completion of the five day incubation. The inhibitory activity of the compound was monitored on the virus-infected cells and was expressed as IC50 and IC90. These values represent the amount of the compound required to protect 50% and 90%, respectively, of the cells from the cytopathogenic effect of the virus. The toxicity of the compound was measured on the mock-infected cells and was expressed as CC50, which represents the concentration of compound required to inhibit the growth of the cells by 50%. The select index (SI) (ratio CC50/IC50) is an indication of the selectivity of the anti-HIV activity of the inhibitor.

[1] = Oral absorption in rats, serum concentration; type: in vivo; conditions: single oral dose 20 mg/kg in PEG400 by gavage, read-out: Compound concentration in serum
Procedure: The oral absorption of compound 13 was then measured in rats to determine bioavailability. The compound was administered by gavage to rats, as a single dose of 20 mg/kg in PEG400. Animals were sacrificed at different time points after administration, whole blood was collected and serum prepared by standard methods. Concentration of the compound in serum was determined by titrating the anti-HIV activity present in the sample according to the procedure described above.

HIV strain r13037 = assay: Antiviral spectrum, protease inhibitor resistant strain; type: cell-based; conditions: strain r13037; L10I, M46I, I54V, L63P, A71T, V77I, V82A, L90M
Procedure: as §1
(§2) Because of the increasing emergence of drug resistant HIV strains, compound 13 and compound 14 were tested for its potency against HIV strains harbouring several mutations. These mutations are associated with resistance to protease inhibitors and result in viruses that show various degrees of phenotypic cross-resistance to five of the currently commercially available drugs (Saquinavir, Ritonavir, Nelfinavir, Indinavir and Amprenavir).

HIV strain r13025 = assay: as above; type: cell-based; conditions: strain r13025; L10I, M46I, L63P, A71V, I84V
Procedure: as §1, §2

HIV strain r13034 = assay: as above; type: cell-based; conditions: strain r13034; L10I, M36I, I54V, L63P, A71V, I84V
Procedure: as §1, §2

HIV strain r13035 = assay: as above; type: cell-based; conditions: strain r13035; D30N, L63P, V77I, N88D
Procedure: as §1, §2

HIV strain r13023 = assay: as above; type: cell-based; conditions: strain r13023; L10I, M36I/M, I54V/I, L63P, A71V, G73S, I84V, L90M
Procedure: as §1, §2

HIV strain r13030 = assay: as above; type: cell-based; conditions: strain r13030; L10V/I, M36I, I54V, L63P, A71V, V82T, L90M
Procedure: as §1, §2

HIV strain r13036 = assay: as above; type: cell-based; conditions: strain r13036; L10I, L63P, A71V, G73S, L90M
Procedure: as §1, §2

HIV strain r13033 = assay: as above; type: cell-based; conditions: strain r13033; L10I, M46L, I54V, L63P, A71V, V82A, L90M
Procedure: as §1, §2

HIV strain r13029 = assay: as above; type: cell-based; conditions: strain r13029; L10I/L, M36I, M46L, L63P, A71V, I84V, N88D, L90M
Procedure: as §1, §2

HIV strain r13022 = assay: as above; type: cell-based; conditions: strain r13022; K20R, M36I, M46I/M, 154V, L63P, A71V/I, V82T, L90M
Procedure: as §1, §2

HIV strain r13031 = assay: as above; type: cell-based; conditions: strain r13031; G48V, I54V, V77I, V82A, L90M/L
Procedure: as §1, §2

HIV strain r13021 = assay: as above; type: cell-based; conditions: strain r13021; L10I, K20R, L24I, M36I, I54V, L63P, A71V, V82T, I84V
Procedure: as §1, §2

HIV strain r13027 = assay: as above; type: cell-based; conditions: strain r13027; L10M/I, K20R, M36I, L63P, A71V, G73S, V77I, I84V, L90M
Procedure: as §1, §2

HIV strain r13024 = assay: as above; type: cell-based; conditions: strain r13024; L10I, M36I, L63P, A71V, G73S, I84V, L90M
Procedure: as §1, §2

Q: Which “decrease of the potency” value (HIV; AAG at a concentration of 2 mg/ml) does the source give for `CC(C)CN(CC(O)C(Cc1ccccc1)NC(=O)OC1COC2OCCC12)S(=O)(=O)c1ccc2c(c1)OCO2` (stereo not shown) [Compound 13, hexahydrofuro[2,3-b]furan-3-yl-N-{3-[(1,3-benzodioxol-5-ylsufonyl)(isobutyl)amino]-1-benzyl-2-hydroxypropyl}carbamate] here?
A: two to four

Q: What about the “effect on the potency” value (HIV; HSA at a concentration of 45 mg/ml) of the same compound?
A: no effect

Q: And the “SI (ratio CC50/IC50)” value (HIV-1 strain LAI; CC50 on mock-infected MT4 cells / IC50 on HIV-1 LAI)?
A: 13,900

Q: And the IC90 (HIV-1 strain LAI; Human immunodeficiency virus 1, 120 h, HIV-1 strain LAI, MT4 cells, five days, median value of 12 determinations)?
A: 2.4 nM

Q: What about the IC50 (HIV-1 strain LAI; Human immunodeficiency virus 1, MT4, 120 h, HIV-1 strain LAI, MT4 cells, five days) of the same compound?
A: 1.1 nM

Q: And the IC50 (HIV-1 strain LAI; strain LAI)?
A: 1.4 nM

Q: And the concentration at 0 min ([1]; rat, serum, po, 20 mg/kg, 0 minutes after administration)?
A: 0 nM

Q: And the concentration at 60 min ([1]; rat, serum, po, 20 mg/kg, 60 minutes after administration)?
A: 1000 nM

Q: What about the concentration at 180 min ([1]; rat, serum, po, 20 mg/kg, 180 minutes after administration) of the same compound?
A: 687 nM

Q: And the concentration at 300 min ([1]; rat, serum, po, 20 mg/kg, 300 minutes after administration)?
A: 216 nM

Q: What about the concentration at 300 min ([1]; 60 minutes after administration) of the same compound?
A: 985.8 nM

Q: And the IC50 (HIV strain r13037)?
A: 0.3 nM

Q: And the IC50 (HIV strain r13025)?
A: 45.4 nM

Q: What about the IC50 (HIV strain r13034) of the same compound?
A: 8 nM

Q: And the IC50 (HIV strain r13035)?
A: 0.3 nM

Q: And the IC50 (HIV strain r13023)?
A: 6.8 nM

Q: What about the IC50 (HIV strain r13030) of the same compound?
A: 0.4 nM

Q: And the IC50 (HIV strain r13036)?
A: 5.4 nM

Q: What about the IC50 (HIV strain r13033) of the same compound?
A: 1.7 nM

Q: And the IC50 (HIV strain r13029)?
A: 7 nM

Q: And the IC50 (HIV strain r13022)?
A: 1.7 nM

Q: And the IC50 (HIV strain r13031)?
A: 0.5 nM

Q: What about the IC50 (HIV strain r13021) of the same compound?
A: 5.5 nM

Q: What about the IC50 (HIV strain r13027) of the same compound?
A: 7.4 nM

Q: What about the IC50 (HIV strain r13024) of the same compound?
A: 8.1 nM

— US7157495B2, “Hexahydrofuro[2,3-B]furan-3-YL-N-{3-[(1,3-benzodioxol-5-ylsulfonyl)(isobutyl)amino]-1-benzyl-2-hydroxypropyl}carbamate as retroviral protease inhibitor” (Tibotec Pharmaceuticals, Ltd., priority 1999, dated 2007)
